Data taken from patent US20220380341A1, “INHIBITORS OF HIV-1 NEF FOR THE TREATMENT OF HIV DISEASE” (priority 2018, published 2022).
Where two headings read alike, the source gives them in different places.

Key:
[1] = molecular target: Nef from SIV (strain mac239) (Simian immunodeficiency virus, UniProt Q5QGG3); assay: biochemical
Description: Also shown are SPR data recorded on a Reichert 4-channel SPR instrument. […] Recombinant Nef is immobilized on the biosensor surface, and each compound is injected and association/dissociation kinetics are recorded. The resulting data for the 3 isoforms are each best-fit using both a two-site model and a two-step, induced-fit model. Dissociation constants (KD), calculated from the kinetic association and dissociation constants from all three isoforms, are shown in columns 6-7. Data were fit using three regimes and the resulting KD: from each model are shown in the Table: 1:1 Langmuir fit; 2-site fit, which yields low and high affinity components; and a 2-step induced fit model.

TZM-bl cell line = assay type: cell-based; settings: human, 1 μM
Summary of the method: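 TZM-bl cells (HIV-1 LTR-luciferase) infected with HIV-1NL4-3 with compound at 1 μM; luciferase read 48 h later. Percent inhibition normalized to DMSO wild-type infection (0%) and Nef-defective HIV-1 infection (100% of Nef-dependent effect). Viability in uninfected TZM-bl cells by Cell Titer Blue.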

HIV-1 Nef SF2 = molecular target: T1, HIV-1 Nef SF2 (Human immunodeficiency virus type 1 group M subtype B, UniProt P03407); assay: biochemical; assay type: binding; settings: two-step induced-fit model, Reichert SPR, read-out: Reichert SPR Nef SF2 (M) two-step fitting
T1 construct: made in house

HIV-1 NefNL4-3 = HIV-1 NefNL4-3 (Human immunodeficiency virus type 1 group M subtype B, UniProt P03406, A33V/T15A/T51N/V11I); assay: Surface plasmon resonance binding to recombinant full-length Nef (NL4-3); settings: for T, minutes (residence time): 2-step induced fit, T = 1/koff2; for RU30/RUNef (extent of binding): response units at 30 μM relative to Nef immobilized on the SPR chip
HIV-1NL4-3 = assay: HIV-1 infectivity assay in TZM-bl reporter cell line (LTR-luciferase, 48 h); assay type: cell-based; settings: Human immunodeficiency virus 1, TZM-bl
Summary of the method: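 Nef-dependent infectivity in TZM-bl cells: HIV-1NL4-3 infection with 1 μM compound, luciferase read at 48 h, normalized against DMSO wild-type and Nef-defective controls. Compound cytotoxicity in uninfected cells measured by Cell Titer Blue.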

HIV-1 NL4-3 = assay: HIV-1 replication in normal donor PBMCs (p24 Gag AlphaLISA); assay type: cell-based; settings: Human immunodeficiency virus 1, NL43, PBMC, 96 h, Table 2, 4 days
Description: (§1) FIG. 4. Inhibition of HIV-1 replication by compounds disclosed herein in PBMCs. Donor PBMCs were infected with HIV-1 in the presence of inhibitor concentrations ranging from 1 to 1,000 nM or the DMSO carrier solvent as a negative control (0.1% DMSO final). Replication was assessed by p24 Gag AlphaLISA (Perkin Elmer) […]. Each donor was also infected with Nef-defective HIV-1 to establish the baseline for Nef-dependent enhancement of replication in each culture. Cytotoxicity was assessed in uninfected PBMCs over the same incubation period using the CellTiter-Blue assay (Promega). Data were fit by non-linear regression analysis (GraphPad Prism v.7.04) to determine the IC50 and CC50 values shown.
The tables also show data for HIV-1 Replication in normal donor peripheral blood mononuclear cells (PBMCs), which is assay is conducted as follows:
(§2) Non-HLA-typed buffy coats (Source: Pittsburgh Central Blood Bank, #E3755) are received and processed within 24 hours of blood donation. PBMCs are isolated via rocking for RBC separation following 1:1 dilution with PBS, followed by Ficoll gradient centrifugation. The lymphocyte fraction is removed and washed several times for a final concentration of ˜150-300×10^6 cells per donor. Cells are activated for 3 days with 1-5 μg/mL PHA (Sigma) and 50 U/mL IL-2. Cells are plated at 750,000 cells/ml and viability is checked at day 3 using the Cell Titer Blue assay (Promega). If cells are >90% viable, then they are infected with HIV-1 NL4-3, wild-type or Δ-Nef mutant (input typically 30-500 pg/mL p24 capsid equivalents) in the presence or absence of Nef inhibitor analogs. IL-2 is included in the media at the time of infection. After 4 days, cells are lysed with 1% Triton X-100 for 1.5 h, checked for viability via Cell Titer Blue, and frozen/stored at −20° C. HIV-1 replication is assessed with a high-sensitivity HIV-1 p24 AlphaLISA assay (Perkin Elmer) in ½-volume 96-well plates, using one-half of the recommended assay volumes for all reagents (including samples). Assays are read on the BioTek Cytation5 instrument; readout is in AlphaUnits and replication in p24 pg/mL is determined using an HIV-1 p24 capsid protein standard included in the Alpha kit.

uninfected PBMCs = assay type: cell-based; settings: human
Description: as §1, §2

[2] = KD, M, Table 4, SPR fit 2-step induced fit, KD = koff/kon × koff2/(koff2 + kon2)
[3] = Nef NL4-3 Binding, SPR 2-state fitting KD, Table 1, 2-step induced-fit model
[4] = Reichert SPR Nef NL43 (M) two-step fitting, KD, two-step induced-fit model, Reichert SPR, Table 3
[5] = read-out: Nef NL4-3 Binding, SPR 1:1 or 2-site fitting KD2, Table 1, 2-site fit, second component
[6] = 1.0 μM, TZM-bl reporter cell line, Table 4, read-out: % Infectivity Inhibition
[7] = 1 μM, TZM-bl, normalized: DMSO wild-type HIV-1 = 0%, Nef-defective HIV-1 = 100%, read-out: HIV-1 Infectivity % Inhibition norm. to Δ-Nef @ 1 μM
[8] = 48 h, Table 1, TZM-bl cells, 1 μM, 48 h, 100% = Nef-defective HIV-1, read-out: HIV-1 Infectivity % Inhibition Norm. to Δ-Nef @ 1 μM

| Compound | Kd [1] [nM] | % Cell Viability (TZM-bl cell line) [%] | Percent Viability @ 1 μM (TZM-bl cells) (TZM-bl cell line) [%] | Kd (HIV-1 Nef SF2) [M] | Kd (HIV-1 NefNL4-3) [M] | Kd (HIV-1 NefNL4-3; [2]) [M] | Kd (HIV-1 NefNL4-3; [3]) [M] | Kd (HIV-1 NefNL4-3; [4]) [M] | T, minutes (residence time) (HIV-1 NefNL4-3; Table 4) | Kd (HIV-1 NefNL4-3; [5]) [M] | RU30/RUNef (extent of binding) (HIV-1 NefNL4-3) | inhibition at 1 µM (HIV-1NL4-3; [6]) [%] | inhibition at 1 µM (HIV-1NL4-3; [7]) [%] | inhibition at 1 µM (HIV-1NL4-3; [8]) [%] | Kd (HIV-1 NefNL4-3; Nef NL4-3 Binding, SPR 1:1 or 2-site fitting KD2, Table 1, 2-site fit, second component) [M] | IC50 (HIV-1 NL4-3) [nM] | Kd (HIV-1 NefNL4-3; Nef NL4-3 Binding, SPR 2-state fitting KD, Table 2, 2-step induced-fit model) [M] | Kd (HIV-1 NefNL4-3; read-out: Nef NL4-3 Binding, SPR 1:1 or 2-site fitting KD2, Table 2, 2-site fit, second component) [M] | inhibition at 1 µM (HIV-1NL4-3; 48 h, Table 2, TZM-bl cells, 1 μM, 48 h, 100% = Nef-defective HIV-1, read-out: HIV-1 Infectivity % Inhibition Norm. to Δ-Nef @ 1 μM) [%] | Toxicity in HIV Replication PBMC (Toxic @ concentration) (uninfected PBMCs) |
| --- | --- | --- | --- | --- | --- | --- | --- | --- | --- | --- | --- | --- | --- | --- | --- | --- | --- | --- | --- | --- |
| Oc1c(CC2CCOCC2)c(-c2ccc(F)cc2)nn1-c1nc2ccccc2[nH]1 [Compound I-151, 1-(1H-1,3-benzodiazol-2-yl)-3-(4-fluorophenyl)-4-[(oxan-4-yl)methyl]-1H-pyrazol-5-ol] | 1460 | 83.0 | 83.0 | 3.5e-06 | 5.34e-07 | 6.26e-06 | 5.65e-06 | 5.65e-06 | 4.68E + 00 minutes | 4.65e-05 | 8.50E- 03 | 100 | 106 | 106 | – | – | – | – | – | – |
| Oc1c(CCc2ccc(F)cc2)c(C2CC2)nn1-c1nc2cc(Cl)ccc2[nH]1 [Compound I-170, 1-(5-chloro-1H-1,3-benzodiazol-2-yl)-3-cyclopropyl-4-[2-(4-fluorophenyl)ethyl]-1H-pyrazol-5-ol] | 2.87 | 98.8 | 98.8 | 4.9e-07 | – | 1.25e-08 | 1.25e-08 | 1.25e-08 | 8.01E + 02 minutes | 1.99e-06 | 2.34E- 02 | 67.1 | 67.1 | 67.1 | – | – | – | – | – | – |
| CC(C)(C)OC(=O)N1CCC(CCc2c(-c3cccc(S(C)(=O)=O)c3)nn(-c3nc4ccccc4[nH]3)c2O)CC1 [Compound I-210, tert-butyl 4-{2-[1-(1H-1,3-benzodiazol-2-yl)-5-hydroxy-3-(3-methanesulfonylphenyl)-1H-pyrazol-4-yl]ethyl}piperidine-1-carboxylate] | 709 | 83.7 | 83.7 | 4.31e-06 | 8.86e-07 | 4.56e-06 | 4.56e-06 | 4.56e-06 | 1.06E + 01 minutes | 8.12e-06 | 5.18E- 03 | 95.4 | 95.4 | 95.4 | – | – | – | – | – | – |
| Oc1c(CCc2ccc(F)cc2)c(C2CC2)nn1-c1nc2cccnc2[nH]1 [Compound I-308, 3-cyclopropyl-4-[2-(4-fluorophenyl)ethyl]-1-{3H-imidazo[4,5-b]pyridin-2-yl}-1H-pyrazol-5-ol] | 3850 | 100 | 100.1 | 2.91e-06 | 9.41e-07 | 4.06e-06 | 4.06e-06 | 4.06e-06 | 5.81E + 00 minutes | – | 6.06E- 03 | 61.4 | 61.4 | 61.4 | 2.21e-06 | – | – | – | – | – |
| Oc1c(CCc2ccc(F)cc2)c(-c2ccc(C(F)(F)F)cc2)nn1-c1cc(C(F)(F)F)n[nH]1 [Compound I-601, 4-[2-(4-fluorophenyl)ethyl]-5′-(trifluoromethyl)-3-[4-(trifluoromethyl)phenyl]-2′H-[1,3′-bipyrazol]-5-ol] | 22000 | 100 | 101.3 | 4.55e-05 | 1.72e-06 | 2.64e-05 | – | 8.96e-09 | 5.59E + 00 minutes | – | 4.19E- 02 | 67.6 | 67.6 | – | – | ≤ 10 | 8.96e-09 | 2.64e-05 | 67.6 | – |
| CC(=O)N1CCC(c2nn(-c3nc4ccc(Cl)cc4[nH]3)c(O)c2CCc2ccc(F)cc2)CC1 [Compound I-702, 1-{4-[1-(5-chloro-1H-1,3-benzodiazol-2-yl)-4-[2-(4-fluorophenyl)ethyl]-5-hydroxy-1H-pyrazol-3-yl]piperidin-1-yl}ethan-1-one] | – | 96.4 | 96.4 | – | 6.05e-07 | 3.59e-06 | 7.87e-07 | – | 5.05E + 00 minutes | 2.72e-06 | 1.56E- 02 | 100 | – | 148 | – | – | – | – | – | Toxic @ 10 nM |
| CC(C)(O)C(=O)N1CCC(CCc2c(C3CC3)nn(-c3nc4cc(Cl)ccc4[nH]3)c2O)CC1 [Compound I-712, 1-(4-{2-[1-(5-chloro-1H-1,3-benzodiazol-2-yl)-3-cyclopropyl-5-hydroxy-1H-pyrazol-4-yl]ethyl}piperidin-1-yl)-2-hydroxy-2-methylpropan-1-one] | 2.19 | 100 | 104.4 | 5.9e-09 | 6.85e-08 | 1.99e-08 | 1.99e-08 | 1.99e-08 | 7.54E + 02 minutes | 1.03e-05 | 1.07E- 02 | 52.3 | 52.6 | 52.6 | – | – | – | – | – | – |
| CC(C)OC(=O)N1CCC(c2nn(-c3nc4ccccc4[nH]3)c(O)c2CCC2CCOCC2)CC1 [Compound I-722, propan-2-yl 4-[1-(1H-1,3-benzodiazol-2-yl)-5-hydroxy-4-[2-(oxan-4-yl)ethyl]-1H-pyrazol-3-yl]piperidine-1-carboxylate] | 4900 | – | 86.8 | 1.28e-07 | 2.24e-06 | – | 5.49e-06 | 5.49e-06 | – | 7.2e-06 | – | – | 53.4 | 53.4 | – | – | – | – | – | – |
| CN(C)S(=O)(=O)N1CCC(c2nn(-c3nc4ccccc4[nH]3)c(O)c2CCc2ccc(F)cc2)CC1 [Compound I-746, 4-[1-(1H-1,3-benzodiazo1-2-y1)-4-[2-(4-fluorophenyl)ethyl]-5-hydroxy-1H-pyrazol-3-yl]-N,N-dimethylpiperidine-1-sulfonamide] | 49.3 | – | 101.6 | 6.84e-06 | 7.96e-07 | – | – | – | – | – | – | – | 194 | 194 | – | – | – | – | – | – |
